Measurements reported in paper PMC11200944, “Hybrid Caffeic Acid-Based DHFR Inhibitors as Novel Antimicrobial and Anticancer Agents” (Antibiotics, 2024).
Converted amounts (≈) assume the structure as drawn. Read-outs that look alike come from different tables or passages of the source.

Assays:
[1] = system: S. aureus (ATCC FDA209-P); assay: Antibacterial MIC, broth microdilution; format: cell-based, Staphylococcus aureus; conditions: read-out: MIC (µM) S. aureus
Protocol: (§1) The serial dilution technique was utilized to evaluate the antimicrobial activity of synthesized derivatives against Gram-negative, Gram-positive, and fungal strains. […] To dissolve the reference and sample derivatives, DMSO was employed as a solvent. The synthesized compounds were evaluated for their antibacterial effectiveness against E. coli, P. aeruginosa, and S. aureus, and their antifungal potential was tested against Candida albicans and Aspergillus niger.
(§2) The antibacterial and antifungal activity of potential synthesized compounds was evaluated using the broth microdilution method to determine their minimum inhibitory concentration (MIC). […] Individual MIC (µM) values were determined using serial dilution technique with Mueller–Hinton Broth (MHB) media for bacterial growth and Roswell Park Memorial Institute (RPMI) media for fungal growth. […] The turbidity of the spore suspension was corrected to 0.5 McFarland by adding distilled water. Stock solutions of synthesized compounds were prepared in DMSO solvent and serially diluted to determine the MIC value. Each spore (0.1 mL) was put into each well holding the finally serially diluted synthesized compound concentration, standards, and controls. […] Agar plate spotting was carried out for each spore and incubated for 24 h at 37 ± 1 °C (for bacteria spores), 48 h at 37 ± 1 °C (for C. albicans), and 7 days at 25 ± 1 °C (for A. niger) to determine CFU. To assess reproducibility, duplicate tests were performed on three separate days.

[2] = target: T1, DHFR (Homo sapiens, UniProt P00374); assay: In vitro DHFR inhibition assay (DHFR assay kit CS0340, spectrophotometric, 340 nm); format: biochemical
T1 construct: purchased Sigma-Aldrich CS0340
T1 sequence (P00374 1-187): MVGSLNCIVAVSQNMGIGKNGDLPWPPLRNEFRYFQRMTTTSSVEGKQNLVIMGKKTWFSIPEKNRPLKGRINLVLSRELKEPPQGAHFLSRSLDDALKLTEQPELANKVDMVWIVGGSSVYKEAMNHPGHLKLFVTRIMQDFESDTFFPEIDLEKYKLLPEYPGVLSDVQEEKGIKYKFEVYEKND
Protocol: This assessment was carried out using the DHFR assay kit (catalog number CS0340, Sigma-Aldrich, Burlington, MA, USA) by using a spectrophotometric method. The enzymatic […] of dihydrofolic acid to tetrahydrofolic acid was monitored at 340 nm for 180 s, following the procedure recommended by the manufacturer of the assay kit. […] To evaluate the ability of the synthesized derivatives to block DHFR activity, a spectrophotometric assay technique was utilized at 340 nm for 180 seconds to detect the enzyme-catalyzed conversion of dihydrofolic acid to tetrahydrofolic acid. The DHFR assay kit (Sigma-Aldrich, catalog number CS0340) was used in this assay. The kit was tested using recombinant DHFR, NIH 3T3, A431, and CHO cell lines, as well as rat kidney, brain, liver, and muscle tissue extracts. Dihydrofolic acid, NADPH, standard drug solution, assay buffer, and DHFR stock solutions were prepared according to the instructions given in the technical bulletin that came along with the test kit. Except for the assay buffer, all stock solutions were stored on ice.
Each well of a 96-well clear microplate was filled with a calculated amount of assay buffer (190 μL), followed by 6 μL of diluted DHFR, which was thoroughly mixed. […] The microplate was then covered with parafilm, and the contents were mixed by inversion. Following the addition of 1 μL of substrate dihydrofolic acid, the absorbance was measured at 340 nm over a period of 180 s using an ELISA reader (Gen BioTek Microplate Reader, Winooski, VT, USA) in kinetic mode at room temperature. Plotting the relationship between absorbance and time generates the slope for each test inhibitor sample. The relative inhibition percentages were calculated using Equation (1). % relative inhibition = (slope of [EC] − slope of [S]/slope of [EC]) × 100(1) where S is the sample of interest, EC (enzyme control).

[3] = system: P. aeruginosa (ATCC 27853); assay: Antibacterial MIC, broth microdilution; format: cell-based, Pseudomonas aeruginosa; conditions: read-out: MIC (µM) P. aeruginosa
Protocol: as §1, §2

[4] = system: C. albicans (ATCC SC5314); assay: Antifungal MIC, broth microdilution; format: cell-based, Candida albicans; conditions: for MIC: read-out: MIC (µM) C. albicans
Protocol: as §1, §2

[5] = system: E. coli (ATCC 25922); assay: Antibacterial MIC, broth microdilution; format: cell-based, Escherichia coli; conditions: read-out: MIC (µM) E. coli
Protocol: as §1, §2

[6] = system: A. niger (MTCC 1688); assay: Antifungal MIC, broth microdilution; format: cell-based, Aspergillus niger; conditions: for MIC: read-out: MIC (µM) A. niger
Protocol: as §1, §2

[7] = system: MCF-7 breast cancer cell line; assay: Anticancer activity (MTT assay); format: cell-based; conditions: Homo sapiens
Protocol: The anticancer potential of synthesized derivatives was assessed by targeting the MCF-7 breast cancer cell line.
The potential newly synthesized derivatives were evaluated for their cytotoxic activity on the MCF-7 cell line (sourced from NCCS in Pune, India) using the MTT (3-[4,5-dimethylthiazol-2-yl]-2,5-diphenyl tetrazolium bromide) assay. To perform the assay, 10,000 cells were placed in each well of 96-well plates and left to incubate for 24 h in Dulbecco’s Modified Eagle Medium (DMEM). The medium was supplemented with 1% antibiotic solution and 10% FBS (fetal bovine serum), and the incubation occurred at a temperature of 37 °C in an environment containing 5% CO2. […] The cultures were then subjected to additional 2 h incubation. Upon concluding the experiment, the culture supernatant was extracted, and the cellular matrix was dissolved in 100 µL of DMSO. The absorbance of the resulting solution underwent evaluation using an ELISA plate reader (iMark, Biorad, Hercules, CA, USA) at 540 nm. Triplicate measurements were performed to enhance the reliability and reproducibility of the results obtained.

[8] = read-out: DHFR Inhibition IC50 (µM) ± SD, n = 3, 180 s
[9] = Staphylococcus aureus, FDA209, MHB, 37 °C, 24 h
[10] = Pseudomonas aeruginosa, ATCC27853, MHB, 37 °C, 24 h
[11] = Escherichia coli, ATCC25922, MHB, 37 °C, 24 h
[12] = MCF7, read-out: Anticancer IC50 (µM), n = 3, MCF-7, MTT, 24 h
[13] = Candida albicans, SC5314, RPMI, 37 °C, 48 h
[14] = Aspergillus niger, MTCC1688, 168 h, RPMI, 25 °C, 7 days
[15] = MCF7, 24 h, read-out: Anticancer IC50 (µM), n = 3

| Compound | MIC [1, 9] [µM] | MIC [3, 10] [µM] | MIC [5, 11] [µM] | MIC [4, 13] [µM] | MIC [6, 14] [µM] | further results |
| --- | --- | --- | --- | --- | --- | --- |
| 4-(2-(4-((2,4-dichlorocyclohexa-1,5-dienyl)methyleneamino)-5-mercapto-4H-1,2,4-triazol-3-yl)vinyl)benzene-1,2-diol [CTh10] |  |  |  |  |  | MIC ([1]; MHB, 37 °C, 24 h): 19 µM; IC50 [2, 8]: 11.3 ± 0.92 µM; MIC ([3]; MHB, 37 °C, 24 h): 39 µM; MIC ([4]; RPMI, 37 °C, 48 h): 39 µM; MIC ([5]; MHB, 37 °C, 24 h): 39 µM; MIC ([6]; RPMI, 25 °C, 7 days): 39 µM |
| CC1(C)S[C@@H]2[C@H](NC(=O)[C@H](N)c3ccccc3)C(=O)N2[C@H]1C(=O)O [Ampicillin, reference compound] | 11 (≈ 3.84 µg/mL) | 22 (≈ 7.69 µg/mL) | 11 (≈ 3.84 µg/mL) |  |  |  |
| COc1ccc(C=Nn2c(S)nnc2C=Cc2ccc(O)c(O)c2)cc1 [CTh1, 4-(2-(4-(4-methoxybenzylideneamino)-5-mercapto-4H-1,2,4-triazol-3-yl)vinyl)benzene-1,2-diol] | 43 (≈ 15.8 µg/mL) | 86 (≈ 31.7 µg/mL) | 86 (≈ 31.7 µg/mL) | 173 (≈ 63.7 µg/mL) |  | IC50 [7, 12]: 148 ± 11.4 µM; IC50 ([2]; 180 s): 17 ± 1.1 µM; MIC (µM) A. niger ([6]; RPMI, 25 °C, 7 days): - |
| O=[N+]([O-])c1cccc(C=Nn2c(S)nnc2C=Cc2ccc(O)c(O)c2)c1 [CTh3, 4-(2-(4-(3-nitrobenzylideneamino)-5-mercapto-4H-1,2,4-triazol-3-yl)vinyl)benzene-1,2-diol] | 5 (≈ 1.92 µg/mL) | 10 (≈ 3.83 µg/mL) | 10 (≈ 3.83 µg/mL) | 20 (≈ 7.67 µg/mL) | 83 (≈ 31.8 µg/mL) |  |
| Oc1ccc(C=Nn2c(S)nnc2C=Cc2ccc(O)c(O)c2)cc1 [CTh4, 4-(2-(4-(4-hydroxylbenzylideneamino)-5-mercapto-4H-1,2,4-triazol-3-yl)vinyl)benzene-1,2-diol] | 22 (≈ 7.8 µg/mL) | 5 (≈ 1.77 µg/mL) | 5 (≈ 1.77 µg/mL) | 11 (≈ 3.9 µg/mL) |  | IC50 [7, 15]: 122 ± 7.3 µM; MIC (µM) A. niger ([6]; RPMI, 25 °C, 7 days): - |
| O=[N+]([O-])c1ccccc1C=Nn1c(S)nnc1C=Cc1ccc(O)c(O)c1 [CTh6, 4-(2-(4-(2-nitrobenzylideneamino)-5-mercapto-4H-1,2,4-triazol-3-yl)vinyl)benzene-1,2-diol] |  |  |  |  |  | MIC ([1]; Staphylococcus aureus, FDA209, 24 h): 10 µM (≈ 3.83 µg/mL); IC50 [7, 15]: 89.2 ± 4.17 µM; IC50 ([2]; 180 s): 10.5 ± 0.7 µM; MIC ([3]; Pseudomonas aeruginosa, ATCC27853, 24 h): 10 µM (≈ 3.83 µg/mL); MIC ([4]; Candida albicans, SC5314, 48 h): 41 µM (≈ 15.7 µg/mL); MIC ([5]; Escherichia coli, ATCC25922, 24 h): 20 µM (≈ 7.67 µg/mL); MIC ([6]; Aspergillus niger, MTCC1688, 168 h): 83 µM (≈ 31.8 µg/mL) |
| Oc1ccc(/C=C/c2nnc(S)n2/N=C/c2cc3ccccc3cc2O)cc1O [CTh7, 4-(2-(4-(4-naphthalen-2-ol)-5-mercapto-4H-1,2,4-triazol-3-yl)vinyl)benzene-1,2-diol] | 19 (≈ 7.68 µg/mL) | 19 (≈ 7.68 µg/mL) | 39 (≈ 15.8 µg/mL) |  |  | IC50 [7, 12]: 8.53 ± 0.19 µM; IC50 ([2]; 180 s): 0.15 ± 0.02 µM; MIC (µM) C. albicans ([4]; RPMI, 37 °C, 48 h): -; MIC (µM) A. niger ([6]; RPMI, 25 °C, 7 days): - |
| Nn1c(S)nnc1C=Cc1ccc(O)c(O)c1 [CTh] |  |  |  |  |  | MIC ([1]; MHB, 37 °C, 24 h): 63 µM (≈ 15.8 µg/mL); IC50 [2, 8]: 16.9 ± 1.2 µM; MIC ([3]; MHB, 37 °C, 24 h): 127 µM (≈ 31.8 µg/mL); MIC (µM) C. albicans ([4]; RPMI, 37 °C, 48 h): -; MIC ([5]; MHB, 37 °C, 24 h): 255 µM (≈ 63.8 µg/mL); MIC ([6]; RPMI, 25 °C, 7 days): 127 µM (≈ 31.8 µg/mL) |
| OC(Cn1cncn1)(Cn1cncn1)c1ccc(F)cc1F [Fluconazole, reference compound] |  |  |  | 0.81 (≈ 0.248 µg/mL) | 260 (≈ 79.7 µg/mL) |  |
| CN(C)[C@@H]1C(O)=C(C(N)=O)C(=O)[C@@]2(O)C(O)=C3C(=O)c4c(O)cccc4[C@@](C)(O)[C@H]3C[C@@H]12 [Tetracycline, reference compound] | 144 (≈ 64 µg/mL) | 36 (≈ 16 µg/mL) | 36 (≈ 16 µg/mL) |  |  |  |
| COc1cc(Cc2cnc(N)nc2N)cc(OC)c1OC [Trimethoprim, reference compound] | 63 (≈ 18.3 µg/mL) | 31 (≈ 9 µg/mL) | 31 (≈ 9 µg/mL) | 255 (≈ 74 µg/mL) | 127 (≈ 36.9 µg/mL) |  |
| C[C@@H](c1ncncc1F)[C@](O)(Cn1cncn1)c1ccc(F)cc1F [Voriconazole, reference compound] |  |  |  | 0.34 (≈ 0.119 µg/mL) | 5 (≈ 1.75 µg/mL) |  |
| COc1cccc2c1C(=O)c1c(O)c3c(c(O)c1C2=O)C[C@@](O)(C(=O)CO)C[C@@H]3O[C@H]1C[C@H](N)[C@H](O)[C@H](C)O1 [doxorubicin, reference compound] |  |  |  |  |  | IC50 [7, 12]: 3.62 µM |
